In patent US20230015949A1, “NEISSERIA TREATMENT USING CANNABINOIDS” (priority 2019, published 2023):
In brackets after ≈: the same amount, converted by molar mass. Read-outs that look alike come from different tables or passages of the source.

What was measured:
Assay type in all cases: cell-based
[1] = tested on: Staphylococcus aureus ATCC 29213; test: Broth microdilution MIC assay, quality control strain (Example 2); conditions: ATCC29213, S. aureus ATCC 29213 (QC), CAMHB
Experimental: Following incubation, colonies were harvested from these plates and cell suspensions prepared and frozen at −80° C. with a cryoprotectant. Prior to testing, N. gonorrhoeae isolates were streaked onto Chocolate Agar [Becton Dickinson, (BD), Sparks, Md.; Lot No. 922807]; Staphylococcus aureus ATCC 29213 tested for quality control (QC) purposes was streaked onto Trypticase Soy Agar with 5% Sheep Blood (TSA II; BD; Lot No. 9219399).
Cation-adjusted Mueller Hinton broth (CAMHB; BD; Lot No. 9019592) was used for MIC testing of S. aureus ATCC 29213 for QC purposes.
MIC values were determined using a broth microdilution procedure described by CLSI (1, 2). Automated liquid handlers (Multidrop 384, Labsystems, Helsinki, Finland; Biomek 2000 and Biomek FX, Beckman Coulter, Fullerton Calif.) were used to conduct serial dilutions and liquid transfers.
(§1) To prepare the drug mother plates, which would provide the serial drug dilutions for the replicate daughter plates, the wells of columns 2 through 12 of standard 96-well microdilution plates (Costar 3795) were filled with 150 μl of the designated diluent for each row of drug. The test articles and comparator compounds (300 μl at 100× the highest concentration to be tested) were dispensed into the appropriate wells in column 1. The Biomek 2000 was then used to make 2-fold serial dilutions in the mother plates from column 1 through column 11. The wells of column 12 contained no drug and served as the organism growth control wells for the assay.
(§2) The daughter plates were loaded with 190 μL per well of the appropriate test medium for the tested organism using the Multidrop 384. The daughter plates were completed on the Biomek FX instrument which transferred 2 μL of drug solution from each well of a mother plate to the corresponding well of each daughter plate in a single step. Daughter plates for the testing of anaerobes were allowed to pre-reduce in the Bactron II anaerobe chamber for 2 hr prior to inoculation.
(§3) A standardized inoculum of each test organism was prepared per CLSI methods (1, 2). The inoculum for each organism was dispensed into sterile reservoirs divided by length (Beckman Coulter), and the Biomek 2000 was used to inoculate the plates. Daughter plates were placed on the Biomek 2000 work surface in reverse orientation so that inoculation took place from low to high drug concentration. Anaerobic organisms were inoculated by hand in the Bactron II anaerobic chamber. Bacterial plates were then inoculated with 10 μL of the inoculum resulting in a final cell density of approximately 5×10^5 CFU/mL.
Plates were stacked 3 to 4 high, covered with a lid on the top plate and placed in plastic bags. […] The MIC was read and recorded as the lowest concentration of drug that inhibited visible growth of the organism.

Neisseria gonorrhoeae [2] = test: Agar dilution MIC assay, 25 isolates (Example 3); conditions: for MIC: Neisseria gonorrhoeae, agar dilution
Experimental: The MIC of Neisseria gonorrhoea was established using an agar dilution MIC assay.
Test drugs were provided by Micromyx. All stock solutions were allowed to stand for at least 1 hr prior to use to auto-sterilize. Leftover stock solutions of comparator drugs were aliquoted and stored at −80° C. Suppliers, catalog/lot numbers, solvents, stock concentrations and testing ranges were as follows.
Test organisms were reference strains from the American Type Culture Collection (ATCC; Manassas, Va.), isolates from WHO, isolates from the CDC antibiotic resistance bank, and clinical isolates from the Micromyx (MMX) repository. Upon receipt at Micromyx, the isolates were streaked under suitable conditions onto agar medium appropriate to each organism and were incubated for 24-48 hr at 35° C. Colonies harvested from these growth plates were resuspended in the appropriate medium containing a cryoprotectant. Aliquots of each suspension were then frozen at −80° C.
Prior to testing, the isolates were sub-cultured onto Chocolate agar (Becton Dickenson [BD]/BBL; Sparks, Md., Cat. No. 221267, Lot No. 9346275) and placed at 35° C. in a CO2 incubator for 24 hrs.
MIC values were determined using the agar dilution method (1, 2). All serial dilutions and liquid handling were performed by hand using sterile pipettes. […] Cannabidiol was prepared as a stock solution at 100× the final concentration in the appropriate solvent and diluted according to CLSI guidelines.
Each test agent was mixed with molten (50-55° C.) GC media agar supplemented with 1% IsoVitalex. […] All other test agents were added to the medium in a ratio of 0.2 mL 100× test agent to 19.8 mL agar. Once test agents were added to the agar in a sterile tube, they were mixed gently and then poured into a sterile 110×15 mm petri dish. Plates were allowed to solidify at room temperature and placed in a laminar air flow hood with the covers off to remove condensed moisture on the agar surface.
Next, each isolate was suspended to the equivalent of a 0.5 McFarland standard in saline using a Siemens Microscan turbidity meter and diluted 1:10. Each bacterial cell suspension was then transferred to wells in a stainless-steel replicator block. The prongs on the replicator deliver approximately 1-2 μl of inoculum to an agar surface. The resulting inoculum spots contained approximately 10^4 cells/spot.
Each agar plate containing either test compound or no drug (control) was stamped with the replicator. All plates were placed with the agar surface up to allow for the inoculum to soak into the agar. The plates were inverted and incubated at 35° C. for 24 hrs in a CO2 incubator and finally inspected for growth.

Neisseria gonorrhoeae [3] = test: Broth microdilution MIC testing (Example 1)
Experimental: (§4) In this study, to evaluate the spectrum of activity, cannabidiol (CBD) was profiled against Neisseria. Testing was conducted following guidelines recommended by the Clinical and Laboratory Standards Institute (CLSI, 1-4), using vancomycin, meropenem, levofloxacin, and gentamicin as comparators for testing aerobic bacteria.
(§5) Test agents were supplied by Micromyx. Stock solutions of all compounds were prepared on the first day of testing at 101× the highest test concentration using solvents recommended by CLSI. CBD was prepared fresh on each of testing.
(§6) The test organisms evaluated in this study consisted of clinical isolates from the Micromyx Repository, reference isolates from the American Type Culture Collection (ATCC; Manassas, Va.), isolates from the antibiotic resistance bank from the Centers for Disease Control and Prevention (CDC; Atlanta, Ga.), and isolates from the Network on Antimicrobial Resistance in Staphylococcus aureus (NARSA; BEI Resources, Manassas, Va.). Upon initial receipt at Micromyx, the organisms were sub-cultured onto an appropriate agar medium. Following incubation, colonies were harvested from these plates and cell suspensions prepared and frozen at −80° C. with a cryoprotectant.
(§7) Prior to testing, Neisseria was streaked onto Chocolate agar (BD; Lot No. 9228071) and incubated at 35° C. in 5% CO2 for 24 hr.
(§8) For Neisseria, a modified medium described by the ATCC as capable of supporting growth was used. This medium contains 15 g Oxoid Special Peptone, 1 g corn starch (Ward's Science; Rochester, N.Y.; Lot 39-3271), 5 g NaCl (VWR; 57897), 4 g K2HPO4 (Sigma; Lot SLBT7061), 1 g KH2PO4 (SLBC1921V), and 1% IsoVitaleX (BD; Lot 8323954) enrichment per 500 mL.
(§9) MIC values were determined using a broth microdilution procedure described by CLSI (1-4). Automated liquid handlers (Multidrop 384, Labsystems, Helsinki, Finland; Biomek 2000 and Biomek FX, Beckman Coulter, Fullerton, Calif.) were used to conduct serial dilutions and liquid transfers.
as §1, with “article” for “articles”, “101×” for “100×”
as §2, with “step.” for “step. Daughter plates for the testing of anaerobes were allowed to pre-reduce in the Bactron II anaerobe chamber for 2 hr prior to inoculation.”
as §3, with “(1-4).” for “(1, 2).”, “Plates” for “Anaerobic organisms”, “were” for “were inoculated by hand in the Bactron II anaerobic chamber. Bacterial plates were then”, “CFU/mL per well.” for “CFU/mL.”
The plates for testing of aerobic organisms were stacked 3 to 4 high, covered with a sterile lid, and incubated at 35° C. and 5% CO2 for the time periods specified in CLSI (1-4). […] Following incubation, the microplates were removed from the incubator and viewed from the bottom using a plate viewer. […] The MIC was read and recorded as the lowest concentration of drug that inhibited visible growth of the organism.

Neisseria meningitidis = test: Broth microdilution MIC testing (Example 1)
Experimental: as §4, §5, §6, §7, §8, §9
as §1, with “article” for “articles”, “101×” for “100×”
as §2, with “step.” for “step. Daughter plates for the testing of anaerobes were allowed to pre-reduce in the Bactron II anaerobe chamber for 2 hr prior to inoculation.”
A standardized inoculum of each test organism was prepared per CLSI methods (1-4). The inoculum for each organism was dispensed into sterile reservoirs divided by length (Beckman Coulter), and the Biomek 2000 was used to inoculate the plates. […]
The plates for testing of aerobic organisms were stacked 3 to 4 high, covered with a sterile lid, and incubated at 35° C. and 5% CO2 for the time periods specified in CLSI (1-4). […] The MIC was read and recorded as the lowest concentration of drug that inhibited visible growth of the organism.

[4] = 25 isolates, agar dilution assay, MIC distribution
[5] = Neisseria gonorrhoeae, ATCC49226, N. gonorrhoeae MMX 0683 / ATCC 49226, broth microdilution, plate read at 40 hr, read-out: MIC
[6] = Neisseria gonorrhoeae, N. gonorrhoeae MMX 6746, broth microdilution, read-out: MIC
[7] = Neisseria gonorrhoeae, N. gonorrhoeae MMX 6757, broth microdilution, plate read at 40 hr, read-out: MIC
[8] = Neisseria meningitidis, ATCC13090, N. meningitidis MMX 0707 / ATCC 13090, broth microdilution, read-out: MIC

## O=C(O)c1cn(C2CC2)c2cc(N3CCNCC3)c(F)cc2c1=O [CIP, ciprofloxacin]
[1]
  MIC: 0.25 µg/mL (≈ 0.754 µM)
Neisseria gonorrhoeae [2]; [4]
  Number of isolates at MIC 0.015 μg mL^−1: 3
  Number of isolates at MIC 0.03 μg mL^−1: 0
  Number of isolates at MIC 0.06 μg mL^−1: 0
  Number of isolates at MIC 0.12 μg mL^−1: 1
  Number of isolates at MIC 0.25 μg mL^−1: 0
  Number of isolates at MIC 0.5 μg mL^−1: 0
  Number of isolates at MIC 1 μg mL^−1: 0
  Number of isolates at MIC 4 μg mL^−1: 2
  Number of isolates at MIC >8 μg mL^−1: 11
  Number of isolates at MIC ≤0.004 μg mL^−1: 6
Neisseria gonorrhoeae [2]; N. gonorrhoeae CDC 0177
  MIC: 0.015 µg/mL (≈ 0.0453 µM)
Neisseria gonorrhoeae [2]; N. gonorrhoeae CDC 0181
  MIC: 0.015 µg/mL (≈ 0.0453 µM)
Neisseria gonorrhoeae [2]; NCTC13478, N. gonorrhoeae NCTC 13478 (WHO G)
  MIC: 0.12 µg/mL (≈ 0.362 µM)
Neisseria gonorrhoeae [2]; NCTC13481, N. gonorrhoeae NCTC 13481 (WHO M)
  MIC: 2 µg/mL (≈ 6.04 µM)
Neisseria gonorrhoeae [2]; NCTC13483, N. gonorrhoeae NCTC 13483 (WHO O)
  MIC: 0.015 µg/mL (≈ 0.0453 µM)

## C[C@H]1COc2c(N3CCN(C)CC3)c(F)cc3c(=O)c(C(=O)O)cn1c23 [LVX, levofloxacin]
Neisseria gonorrhoeae [3]; [5]
  MIC: 0.002 µg/mL (≈ 0.00553 µM)
Neisseria gonorrhoeae [3]; [6]
  MIC: 4 µg/mL (≈ 11.1 µM)
Neisseria gonorrhoeae [3]; [7]
  MIC: 0.015 µg/mL (≈ 0.0415 µM)
Neisseria meningitidis; [8]
  MIC: 0.004 µg/mL (≈ 0.0111 µM)

## C[C@@H](O)[C@H]1C(=O)N2C(C(=O)O)=C(S[C@@H]3CN[C@H](C(=O)N(C)C)C3)[C@H](C)[C@H]12 [MEM, meropenem]
Neisseria gonorrhoeae [3]; [5]
  MIC: < 0.03 µg/mL
Neisseria gonorrhoeae [3]; [6]
  MIC: 0.06 µg/mL (≈ 0.156 µM)
Neisseria gonorrhoeae [3]; [7]
  MIC: < 0.03 µg/mL
Neisseria meningitidis; [8]
  MIC: < 0.03 µg/mL

## CN[C@H](CC(C)C)C(=O)N[C@H]1C(=O)N[C@@H](CC(N)=O)C(=O)N[C@H]2C(=O)N[C@H]3C(=O)N[C@H](C(=O)N[C@H](C(=O)O)c4cc(O)cc(O)c4-c4cc3ccc4O)[C@H](O)c3ccc(c(Cl)c3)Oc3cc2cc(c3O[C@@H]2O[C@H](CO)[C@@H](O)[C@H](O)[C@H]2O[C@H]2C[C@](C)(N)[C@H](O)[C@H](C)O2)Oc2ccc(cc2Cl)[C@H]1O [VAN, vancomycin]
Neisseria gonorrhoeae [3]; Neisseria gonorrhoeae
  MIC: 16 µg/mL (≈ 11 µM)
Neisseria gonorrhoeae [3]; Neisseria gonorrhoeae, 40 h
  MIC: 32 µg/mL (≈ 22.1 µM)
Neisseria gonorrhoeae [3]; Neisseria gonorrhoeae, ATCC49226, 40 h
  MIC: 8 µg/mL (≈ 5.52 µM)
Neisseria meningitidis; Neisseria meningitidis, ATCC13090
  MIC: > 32 µg/mL

## gentamicin
Neisseria gonorrhoeae [3]; N. gonorrhoeae MMX 0683 / ATCC 49226, broth microdilution, plate read at 40 hr
  MIC: 4 µg/mL
Neisseria gonorrhoeae [3]; N. gonorrhoeae MMX 6746, broth microdilution
  MIC: 16 µg/mL
Neisseria gonorrhoeae [3]; N. gonorrhoeae MMX 6757, broth microdilution, plate read at 40 hr
  MIC: 8 µg/mL
Neisseria meningitidis; N. meningitidis MMX 0707 / ATCC 13090, broth microdilution
  MIC: 8 µg/mL
